In doi:10.1101/2020.10.13.20211417v1 (medRxiv, 2020):

Tested on: patients with acute primary supratentorial ICH
Test: Adverse events and safety endpoints, CATCH trial
Assay type: in vivo, human
[1] = Related, Treatment Emergent Non-Serious AEs
[2] = Treatment Emergent Non-Serious AEs
[3] = non-serious TEAE events, Total, Total severity

Ac-VSRRR-NH2 [CN-105]
24%: participants experiencing treatment emergent SAEs (9 of 38 participants) | treatment emergent AE leukocytosis, participants (38 participants)
32%: participants experiencing nonfatal SAEs (12 of 38 participants)
73: # of Events, Mild [1]
30: # of Subjects, Mild (All Non-Serious AEs) | # of Subjects [2]
18%: treatment emergent AE hypomagnesemia, participants (38 participants) | treatment emergent AE hyponatremia, participants (38 participants) | treatment emergent AE nausea, participants (38 participants)
12 (5.2) N (%): Pain [3]
11 (4.8) N (%): Constipation [3]
13%: participants with in-hospital neurological deterioration (Five of 38, increase of NIHSS>2 from baseline persisting more than 24 hours)
29%: treatment emergent AE pain, participants (38 participants)
1 (0.4) N (%): Alcohol withdrawal syndrome [3] | Anxiety [3] | Atelectasis [3] | Atrial fibrillation [3] | Azotemia [3] | Bacteremia [3] | Benign prostatic hyperplasia [3] | Bladder catheterization [3] | Blood phosphorus decreased [3] | Candida infection [3] | Cognitive disorder [3] | Confusional state [3] | Cough [3] | Decubitus ulcer [3] | Deep vein thrombosis [3] | Dehydration [3] | Depression [3] | Endotracheal intubation [3] | Eustachian tube dysfunction [3] | Exophthalmos [3] | Gastrointestinal hemorrhage [3] | Helicobacter infection [3] | Hematocrit decreased [3] | Hypernatremia [3] | Hypoglycemia [3] | Medical observation [3] | Muscle spasticity [3] | Musculoskeletal pain [3] | Neurological decompensation [3] | Partial seizures [3] | Patella fracture [3] | Pneumocephalus [3] | Pneumonia aspiration [3] | Procedural pain [3] | Pulmonary congestion [3] | Pulmonary embolism [3] | Reflux gastritis [3] | Respiratory failure [3] | Scleral oedema [3] | Scrotal irritation [3] | Sepsis [3] | Sleep apnea syndrome [3] | Somnolence [3] | Staphylococcal infection [3] | Thrombocytosis [3] | Thrombosis [3] | Tremor [3] | Troponin increased [3] | Urinary incontinence [3]
2 (0.9) N (%): Bradycardia [3] | Brain edema [3] | Chest pain [3] | Diarrhea [3] | Edema [3] | Flatulence [3] | Hyperchloremia [3] | Hyperlipidemia [3] | Hypermagnesemia [3] | Hypotension [3] | Impulsive behaviour [3] | Intracranial pressure increased [3] | Lactic acidosis [3] | Neuralgia [3] | Pneumothorax [3] | Seizure [3] | Subarachnoid haemorrhage [3] | Tachycardia [3] | Vomiting [3]
5 (2.2) N (%): Agitation [3] | Anemia [3] | Delirium [3] | Fall [3] | Hyperglycemia [3] | Hypocalcemia [3]
31: # of Subjects (All Non-Serious AEs)
Unrelated: SAE Drug administration error (Medication administration error), Relatedness (all SAEs, subject 101-003, Moderate, day 2-2, Recovered / Resolved) | SAE Failure to thrive, Relatedness (all SAEs, subject 101-004, Moderate, day 23-57, Recovered / Resolved) | SAE Brain herniation (Cerebral herniation), Relatedness (all SAEs, subject 101-007, Severe, day 0-5, Fatal) | SAE Urinary tract infection, Relatedness (all SAEs, subject 101-013, Moderate, day 39-44, Recovered / Resolved) | SAE Pulmonary embolism, Relatedness (all SAEs, subject 101-015, Severe, day 22-32, Recovered / Resolved) | SAE Cerebral haemorrhage (Worsening of Intracerebral Hemorrhage), Relatedness (all SAEs, subject 101-018, Severe, day 0-6, Fatal) | SAE Dural arteriovenous fistula, Relatedness (all SAEs, subject 102-002, Moderate, day 1-1, Recovered / Resolved) | SAE Deep vein thrombosis (Left Popliteal Vein), Relatedness (all SAEs, subject 102-010, Severe, day 75-83, Recovered / Resolved) | SAE Respiratory distress, Relatedness (all SAEs, subject 103-001, Moderate, day 1-35, Recovered / Resolved) | SAE Brain herniation, Relatedness (all SAEs, subject 104-001, Severe, day 0-4, Fatal) | SAE Partial seizures (Focal Seizure), Relatedness (all SAEs, subject 106-002, Severe, day 8-18, Recovered / Resolved) | Treatment emergent SAE Failure to thrive, Relatedness (subject 101-004, Moderate, day 23-57, Recovered / Resolved) | Treatment emergent SAE Urinary tract infection, Relatedness (subject 101-013, Moderate, day 39-44, Recovered / Resolved) | Treatment emergent SAE Pulmonary embolism, Relatedness (subject 101-015, Severe, day 22-32, Recovered / Resolved) | Treatment emergent SAE Dural arteriovenous fistula, Relatedness (subject 102-002, Moderate, day 1-1, Recovered / Resolved) | Treatment emergent SAE Deep vein thrombosis (Left Popliteal Vein), Relatedness (subject 102-010, Severe, day 75-83, Recovered / Resolved) | Treatment emergent SAE Respiratory distress, Relatedness (subject 103-001, Moderate, day 1-35, Recovered / Resolved) | Treatment emergent SAE Partial seizures (Focal Seizure), Relatedness (subject 106-002, Severe, day 8-18, Recovered / Resolved)
26%: treatment emergent AE constipation, participants (38 participants)
21%: treatment emergent AE hypophosphatemia, participants (38 participants)
8%: participants who died prior to 30-day follow up (Three of 38, in-hospital, related to primary disease)
13: # of Events, Moderate [1]
Eleven: treatment emergent SAEs, number of events (deemed unlikely related to study drug)
51: # of Events, Moderate (All Non-Serious AEs)
3: # of Events, Severe (All Non-Serious AEs) | # of Events, Severe [2]
6 (2.6) N (%): Pyrexia [3]
5: # of Subjects, Moderate [1]
183: # of Events, Mild (All Non-Serious AEs)
No participants: central nervous system (CNS) infection (38 participants)
4 (1.7) N (%): Acute kidney injury [3] | Headache [3] | Hypokalemia [3] | Pneumonia [3] | Urinary retention [3] | Urinary tract infection [3]
5%: participants receiving treatment for elevated intracranial pressure (Two of 38, both died in-hospital of brain herniation from index ICH)
19: # of Subjects, Moderate (All Non-Serious AEs) | # of Subjects, Moderate [2]
0: # of Events, Severe [1] | # of Subjects, Severe [1]
7 (3) N (%): Hypomagnesemia [3] | Hyponatremia [3] | Nausea [3]
237: # of Events (All Non-Serious AEs)
3 (1.3) N (%): Depressed mood [3] | Dysphagia [3] | Dyspnea [3] | Hydrocephalus [3] | Nasal congestion [3] | Tachypnea [3] | Thrombocytopenia [3]
16%: treatment emergent AE pyrexia, participants (38 participants)
177: # of Events, Mild [2]
9 (3.9) N (%): Hypophosphatemia [3] | Leukocytosis [3]
No participant experienced changes: changes in electrocardiogram parameters (38 participants)
230: # of Events [2]
29: # of Subjects, Mild [2]
50: # of Events, Moderate [2]
230 (100) N (%): Grand Total (non-serious TEAE events, Total severity)
2: # of Subjects, Severe (All Non-Serious AEs) | # of Subjects, Severe [2]
86: # of Events [1]
16: # of Subjects [1] | # of Subjects, Mild [1]
Related: SAE Pneumonia (Left upper lobe pneumonia), Relatedness (all SAEs, subject 101-004, Moderate, day 1-8, Recovered / Resolved) | SAE Cerebral haemorrhage (Left Frontal IPH), Relatedness (all SAEs, subject 101-004, Severe, day 58-62, Recovered / Resolved) | SAE Respiratory failure (Hypoxic Respiratory Failure), Relatedness (all SAEs, subject 101-008, Moderate, day 2-4, Recovered / Resolved) | Treatment emergent SAE Pneumonia (Left upper lobe pneumonia), Relatedness (subject 101-004, Moderate, day 1-8, Recovered / Resolved) | Treatment emergent SAE Cerebral haemorrhage (Left Frontal IPH), Relatedness (subject 101-004, Severe, day 58-62, Recovered / Resolved)
